Here are results for two compounds from publication PMC6017090, “Design, Synthesis and Biological Evaluation of Novel N-Pyridyl-Hydrazone Derivatives as Potential Monoamine Oxidase (MAO) Inhibitors” (Molecules : A Journal of Synthetic Chemistry and Natural …, 2018).

The target of one series is T1, human recombinant MAO-B (Homo sapiens, UniProt P27338).
T1 construct: purchased Sigma-Aldrich
T1 sequence (P27338 1-520): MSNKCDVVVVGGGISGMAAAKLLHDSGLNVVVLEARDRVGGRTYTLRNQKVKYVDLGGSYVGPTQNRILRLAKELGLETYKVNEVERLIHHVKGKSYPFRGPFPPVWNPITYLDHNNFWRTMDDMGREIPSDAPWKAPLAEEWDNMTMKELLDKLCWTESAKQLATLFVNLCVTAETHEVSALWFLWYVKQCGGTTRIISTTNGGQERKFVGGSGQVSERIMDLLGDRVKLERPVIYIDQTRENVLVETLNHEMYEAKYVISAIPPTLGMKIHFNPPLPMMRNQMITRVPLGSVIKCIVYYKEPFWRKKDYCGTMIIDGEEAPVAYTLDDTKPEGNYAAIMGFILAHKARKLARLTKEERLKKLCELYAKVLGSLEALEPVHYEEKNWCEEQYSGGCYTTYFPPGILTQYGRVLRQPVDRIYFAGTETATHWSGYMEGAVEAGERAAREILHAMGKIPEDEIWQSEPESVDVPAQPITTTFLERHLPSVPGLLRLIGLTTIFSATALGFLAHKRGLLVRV
Put plainly: MAO activity assay (fluorometric, kynuramine substrate), MAO-B. It counts as biochemical. As for the experimental part: (§1) The enzyme activity assay was performed in accordance with the procedure reported by Matsumoto et al. with slight modifications. All materials used in the enzymatic assays were purchased from Sigma-Aldrich Chemicals. All pipetting protocols in the assay were performed by the Biotek Precision robotic system (BioTek Instruments, Inc., Winooski, VT, USA). To prevent the effect of light MAO enzymes, the assay was performed in 96-well black plates. Phosphate buffer (0.1 M, pH = 7.4) was used for the preparation of 5 mg/mL stock solutions of the human recombinant MAO-A and MAO-B enzymes. The enzyme stock solutions were further diluted with an assay buffer to obtain final concentrations of 0.006 mg/mL MAO-A and 0.015 mg/mL MAO-B. Kynuramine was dissolved in sterilized distilled water to obtain a 25 mM stock solution and then diluted with the assay buffer to obtain final concentrations of 40 μM for the MAO-A enzyme and 20 μM for the MAO-B enzyme. […] The addition of the diluted compounds was followed by the addition of either the MAO-A or MAO-B enzymes (50 μL/well). […] Fluorescence was read from top by using BioTek-Synergy H1 multimode microplate reader at the excitation/emission wavelengths of 310 and 380 nm.
(§2) The IC50 values (Table 2) were calculated from the plots of enzyme activity against concentrations, and the regression analyses were computed in GraphPad Prism Version 6 (GraphPad Software, Inc., La Jolla, CA, USA).

Series [1] is described as follows: Cytotoxicity test (MTT assay). The settings on record: mouse, NIH/3T3 mouse embryonic fibroblast cells (ATCC CRL-1658).
Experimental: (§3) The MTT assay was performed as previously described [21, 22, 23, 24, 25, 26].
Series [2] addresses T2, MAO-A enzyme (Homo sapiens, UniProt P21397).
T2 construct: purchased Sigma-Aldrich
T2 sequence (P21397 1-527): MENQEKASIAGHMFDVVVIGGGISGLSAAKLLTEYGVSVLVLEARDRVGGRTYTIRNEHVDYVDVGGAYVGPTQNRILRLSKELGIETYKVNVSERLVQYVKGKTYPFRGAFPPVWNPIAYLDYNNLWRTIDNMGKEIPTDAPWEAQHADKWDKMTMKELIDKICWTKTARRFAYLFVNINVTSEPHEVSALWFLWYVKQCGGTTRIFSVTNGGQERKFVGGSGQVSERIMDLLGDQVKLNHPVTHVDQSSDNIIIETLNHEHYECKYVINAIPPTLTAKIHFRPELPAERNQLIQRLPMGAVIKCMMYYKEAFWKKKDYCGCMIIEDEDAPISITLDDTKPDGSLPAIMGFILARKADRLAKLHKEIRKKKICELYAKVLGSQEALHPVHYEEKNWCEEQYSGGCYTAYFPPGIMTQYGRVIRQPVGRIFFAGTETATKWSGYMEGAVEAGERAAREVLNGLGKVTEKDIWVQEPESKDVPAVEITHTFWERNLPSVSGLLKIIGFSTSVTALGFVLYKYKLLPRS
Put plainly: Enzyme kinetic studies (Lineweaver-Burk plots) on MAO-A. Format: biochemical. As for the experimental part: The same materials were used for the MAO-inhibition assay. Compound 2j was prepared at the IC50 concentration calculated in the enzyme assay and then added to the wells (100 μL/well). The stock solution (25 mM) of kynuramine in 0.1 M phosphate buffer was diluted to final concentrations of 40, 20, 10, 5, 2.5 and 1.25 μM and then added to the wells (50 μL/well) that contained the test compound. The MAO-A enzyme was added to the plate (50 μL/well), incubated for 20 min at 37 °C, and the plate was read at excitation/emission wavelengths of 310 and 340 nm. The control measurement without the inhibitor was determined simultaneously. The results were analyzed by using Lineweaver-Burk plots in Microsoft Office Excel 2013 (Microsoft Inc., Redmond, WA, USA).
1/V: 1/rate of reaction [1/(nmoles/min/mg protein)], 1/S: 1/substrate concentration (1/µM).

The target in series [3] is T2, MAO-A enzyme. Put plainly: MAO activity assay (fluorometric, kynuramine substrate), MAO-A. It counts as biochemical. As for the experimental part: as §1, with “Phosphate buffer (0.1 M, pH = 7.4) was used for the preparation of 5 mg/mL stock solutions of the human recombinant MAO-A and MAO-B enzymes.” left out
as §2

For series [4], the system named is NIH/3T3 mouse embryonic fibroblast cells.
Experimental: as §3

For orientation: melting point means the temperature, or range, at which the solid turns liquid. One may read the IC50 as the concentration that inhibits the measured activity by half. One may read the inhibition as the change of the read-out against control, counted positive when it falls. Regarding `CCOc1ccc([N+](=O)[O-])c(NN=Cc2ccc(O)cc2)n1` [Compound 2j, 4-[(2-(6-Ethoxy-3-nitropyridin-2-yl)hydrazono)methyl]phenol], the melting point is 158 °C. For the same compound, the IC50 on human recombinant MAO-B came to 9.3 µM. At human recombinant MAO-B (10^−3 M, ± S.D.), the inhibition at 1000 µM is 63.8 ± 1.28%. Besides, the inhibition at 100 µM on human recombinant MAO-B (10^−4 M, ± S.D.) came to 52.7 ± 1.29%. For the same compound, on human recombinant MAO-B (10^−5 M), the inhibition at 10 µM amounted to 40.2 ± 1.12%. Besides, the inhibition at 1 µM at human recombinant MAO-B (10^−6 M) was 31.6 ± 1.08%. Moreover, the inhibition at 0.1 µM on human recombinant MAO-B (10^−7 M) is 25 ± 0.95%. Also, the inhibition at 0.01 µM on human recombinant MAO-B (10^−8 M) turned out to be 21.9 ± 0.82%. The inhibition at 0.001 µM on human recombinant MAO-B (10^−9 M) turned out to be 12.5 ± 0.51%. The compound also displayed an IC50 in series [1] of more than 1000 µM. Further, the Vmax on MAO-A enzyme [2] (MAO-A, kynuramine substrate, nonlinear regression) turned out to be 1.903 nmol/min/mg protein. For the same compound, the “Nature of MAO-A inhibition (Lineweaver–Burk plots)” value on MAO-A enzyme [2] (compound at IC50 concentration, kynuramine 40-1.25 μM) was “mixed type inhibitor”. Further, on MAO-A enzyme [3], the IC50 is 6.25 µM. For the same compound, the inhibition at 1000 µM at MAO-A enzyme [3] (10^−3 M, ± S.D.) is 75.7 ± 1.85%. Besides, the inhibition at 100 µM at MAO-A enzyme [3] (10^−4 M, ± S.D.) was 69.8 ± 1.43%. Besides, on MAO-A enzyme [3] (10^−5 M), the inhibition at 10 µM was 56.1 ± 1.27%. Besides, on MAO-A enzyme [3] (10^−6 M), the inhibition at 1 µM is 43.2 ± 1.06%. Besides, the inhibition at 0.1 µM on MAO-A enzyme [3] (10^−7 M) is 38.8 ± 1.07%. Also, the inhibition at 0.01 µM on MAO-A enzyme [3] (10^−8 M) is 32.7 ± 0.82%. Moreover, the inhibition at 0.001 µM on MAO-A enzyme [3] (10^−9 M) amounted to 26.7 ± 0.96%.

Regarding `CCOc1ccc([N+](=O)[O-])c(NN=Cc2ccccn2)n1` [Compound 2n, 6-Ethoxy-3-nitro-2[(2-(pyridine-2-yl)methylene)hydrazinyl]pyridine], at human recombinant MAO-B (10^−3 M, ± S.D.), the “MAO-B Inhibition %” value was determined as 42.00 ± 1.21%. In addition, the IC50 is more than 1000 µM in series [4] and 9.52 µM at MAO-A enzyme [3]. Besides, the “MAO-A Inhibition %” value on MAO-A enzyme [3] (10^−3 M, ± S.D.) stood at 72.07 ± 1.56%; on MAO-A enzyme [3] (10^−4 M, ± S.D.), 56.90 ± 1.50%; at MAO-A enzyme [3] (10^−5 M), 42.13 ± 1.22%; at MAO-A enzyme [3] (10^−6 M) it was 35.11 ± 1.18%; on MAO-A enzyme [3] (10^−7 M), 24.96 ± 0.83%; at MAO-A enzyme [3] (10^−8 M), 18.02 ± 0.77%. Also, at MAO-A enzyme [3] (10^−9 M), the “MAO-A Inhibition %” value is recorded as 10.40 ± 0.29%.
